Reference: US20030191051A1, “Combination therapy for the treatment of bacterial infections” (priority 2002, published 2003)

Assay: Combination therapy of antibiotic and COX-2 selective inhibitor administered to a mammal to treat or prevent a bacterial infection
Settings: pharmaceutically effective amount, administered together with a pharmaceutically effective amount of linezolid to a mammal

CS(=O)(=O)c1ccc(C2=C(c3ccccc3)C(=O)OC2)cc1 [rofecoxib]
side effects resulting from the administration of the antibiotic: reduced side effects
